The results in this text go back to US7238524B2, “Prostate cancer cell lines” (Board of Regents of the University of Nebraska, priority 2001, dated 2007).

The structures appear in SMILES notation.

What all share (type): cell-based, human
For assay [1], the system named is NSE. Put plainly: Western blot of NSE expression in butyrate-treated LNCaP cells. The following applies: increasing concentrations of sodium butyrate, FIG. 10B. The procedure:
(§1) FIGS. 10A and 10B show a pair of graphs illustrating the effects of sodium butyrate on LNCaP cell population (FIG. 10A) accompanied by a western blot showing resolution of NSE and RPTPα expression levels in LNCaP cells in the presence of increasing concentrations of sodium butyrate (FIG. 10B).
(§2) The regulation of RPTPα expression was then investigated in prostate cancer cells. The regulation of RPTPα expression was measured using butyrate since this pharmacological reagent induces cellular differentiation and has been utilized in the clinical trials for advanced prostate cancer therapy (29). […] This 160 kDa protein may represent an isoform of RPTPα, due to post-translational modifications (27,28).
For orientation: A western blot detects proteins with antibodies after separation by electrophoresis.

The subject of another assay is LNCaP cells. Put plainly: Effect of butyrate on LNCaP cell growth. The following applies: butyrate treatment, FIG. 10A. How it is done:
as §1, §2

The test system of the next assay is RPTPα. Put plainly: Western blot of RPTPα expression in butyrate-treated LNCaP cells. The following applies: increasing concentrations of sodium butyrate, FIG. 10B. How it is done:
as §1, §2

The next assay has as its system ERK/MAPK. Put plainly: Western blot of ERK/MAPK activation in NE-like subclone cells with MEK inhibitor. The following applies: NE-like subclone cells (NE-1-3), FIG. 7B. An excerpt:
(§3) FIGS. 7A-7C show three western blots. FIG. 7A is a western blot showing levels of MEK and phosphorylated MEK in LNCaP cells and three NE-like subclone cells, NE-1-3, NE-1-8 and NE-1-9. FIG. 7B is a western blot showing inhibition of ERK activation levels in the presence of the MEK inhibitor, PD098059, in NE-1-3 subclone cells. FIG. 7C is a western blot showing inhibition of NSE expression levels mediated by the MEK inhibitor, PD098059, in steroid-reduced medium.
(§4) To test the causal relationship of ERK/MAPK activation with NE-like transdifferentiation, MEKs, up-stream regulators of ERK/MAPK kinases, were examined to determine if they are also activated in the NE-like subclone cells.

The test system of assay [2] is NSE. Put plainly: Induction of NE transdifferentiation (NSE expression, western blot) in LNCaP cells cultured in steroid-reduced condition. The following applies: androgen-responsive LNCaP cells in steroid-reduced condition, FIG. 7C.
From the text: as §3, §4

Consider `CCCC(=O)[O-].[Na+]` [Butyrate, sodium butyrate], for which, in the assay with NSE [1], the NSE protein expression result is “elevated levels”. For the same compound, the “growth of LNCaP cells” value in the assay on LNCaP cells was “growth suppression”. The RPTPα protein expression entry in the assay on RPTPα is reported as “elevated levels”.

As for `COc1cccc(-c2cc(=O)c3ccccc3o2)c1N` [PD098059], the “activation of ERK/MAPK (phosphorylated ERK)” value in the assay with ERK/MAPK is reported as “effectively inhibited”. For the same compound, the “induction of NE transdifferentiation (NSE expression)” value in the assay with NSE [2] is reported as “abolished”.
